# From patent US12077555B2, “STAT degraders and uses thereof” (Kymera Therapeutics, Inc., priority 2019, dated 2024)
# Target: STAT3 (Homo sapiens, UniProt P40763)
# Experiment: STAT3 HiBiT degradation assay in transfected A549 cells
# Format: cell-based
# Parameters: expressed in transfected cells; host or cells: A549
# Conditions: A549, 24 h; read-out: STAT3 HiBiT A549 degradation 24 h: Average external-Abs DC50
# Method in brief: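 Degradation read as HiBiT-tagged STAT3 luminescence (Nano-Glo lytic reagent, 10 min, room temperature) following 24 h compound treatment of transfected A549 cells at 3-fold, 10 points. Percent remaining signal computed against controls and fitted with a four-parameter logistic; DC50 reported as letter bins (A <0.01 to D >1.0 µM).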
# Sequence of STAT3 (P40763 whole entry): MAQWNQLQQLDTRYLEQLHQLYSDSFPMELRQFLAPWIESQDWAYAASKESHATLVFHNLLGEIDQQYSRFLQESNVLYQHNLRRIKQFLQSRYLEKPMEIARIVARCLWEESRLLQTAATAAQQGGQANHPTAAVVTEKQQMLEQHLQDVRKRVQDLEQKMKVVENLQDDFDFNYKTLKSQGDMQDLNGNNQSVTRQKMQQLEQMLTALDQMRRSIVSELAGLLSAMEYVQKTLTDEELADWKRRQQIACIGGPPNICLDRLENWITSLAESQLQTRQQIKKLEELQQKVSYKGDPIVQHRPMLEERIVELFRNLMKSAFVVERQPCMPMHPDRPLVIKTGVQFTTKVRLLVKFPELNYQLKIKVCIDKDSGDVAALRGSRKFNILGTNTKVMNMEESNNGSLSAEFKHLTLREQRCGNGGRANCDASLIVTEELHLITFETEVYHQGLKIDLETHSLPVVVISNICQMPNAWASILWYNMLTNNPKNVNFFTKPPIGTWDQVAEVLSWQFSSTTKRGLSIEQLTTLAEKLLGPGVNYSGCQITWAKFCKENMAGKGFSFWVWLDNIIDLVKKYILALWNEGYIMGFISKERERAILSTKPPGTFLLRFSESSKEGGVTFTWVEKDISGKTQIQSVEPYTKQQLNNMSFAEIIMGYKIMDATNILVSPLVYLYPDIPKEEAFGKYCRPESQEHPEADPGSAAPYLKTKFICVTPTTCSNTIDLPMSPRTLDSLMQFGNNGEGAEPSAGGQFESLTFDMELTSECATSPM
row,Structure (SMILES),DC50 [nM]
1,"Cc1ncsc1-c1ccc([C@H](C)NC(=O)[C@@H]2C[C@@H](O)CN2C(=O)[C@@H](NC(=O)CCCCCc2cc(OC[C@@H](NC(=O)[C@@H]3Cc4cccc5c4N3C(=O)[C@@H](NC(=O)c3cc4cc(C(=O)P(=O)(O)O)ccc4[nH]3)CC5)C(N)=O)ccc2Cl)C(C)(C)C)cc1 [Compound I-199, diammonium 2-[[(2S,11S)-2-[[(2S)-4-carbamoyl-1-[4-chloro-3-(5-[[(2S)-1-[(2S,4R)-4-hydroxy-2-[[(1S)-1-[4-(4-methyl-1,3-thiazol-5-yl)phenyl]ethyl]carbamoyl]pyrrolidin-1-yl]-3,3-dimethyl-1-oxobutan-2-yl]carbamoyl]pentyl)phenoxy]butan-2-yl]carbamoyl]-12-oxo-1-azatricyclo[6.4.1.0^[4,13]]trideca-4(13),5,7-trien-11-yl]carbamoyl]-1H-indole-5-carbonylphosphonate]",10 to 100
2,Cc1ncsc1-c1ccc([C@H](C)NC(=O)[C@@H]2C[C@@H](O)CN2C(=O)[C@@H](NC(=O)CCCCCc2ccc(Cl)c(OC[C@H](CCC(N)=O)NC(=O)[C@@H]3Cc4cccc5c4N3C(=O)[C@@H](NC(=O)c3cc4cc(C(=O)P(=O)(O)O)ccc4[nH]3)CC5)c2)C(C)(C)C)cc1 [Compound I-200],> 1000
3,Cn1c(=O)n(C2CCC(=O)NC2=O)c2ccc(CC[C@H]3CC[C@@H](C(=O)N4CC[C@H]5CC[C@@H](C(=O)N[C@@H](CCC(N)=O)C(=O)NC(c6ccccc6)c6ccccc6)N5C(=O)[C@@H](NC(=O)c5cc6cc(C(=O)P(=O)(O)O)ccc6[nH]5)C4)CC3)cc21 (some centres unmarked) [Compound I-202],10 to 100
4,"Cn1c(=O)n(C2CCC(=O)NC2=O)c2ccc(CC[C@H]3CC[C@H](C(=O)N4CC[C@H]5CC[C@@H](C(=O)N[C@@H](CCC(N)=O)C(=O)NC(c6ccccc6)c6ccccc6)N5C(=O)[C@@H](NC(=O)c5cc6cc(C(=O)P(=O)(O)O)ccc6[nH]5)C4)CC3)cc21 (stereo partly drawn) [Compound I-203, 2-[[(5S,8S,10aR)-8-[[(1S)-3-carbamoyl-1-(diphenylmethylcarbamoyl)propyl]carbamoyl]-6-oxo-3-[(1r,4r)-4-[2-[1-(2,6-dioxopiperidin-3-yl)-3-methyl-2-oxo-1,3-benzodiazol-5-yl]ethyl]cyclohexanecarbonyl]-octahydropyrrolo[1,2-a][1,5]diazocin-5-yl]carbamoyl]-1H-indole-5-carbonylphosphonic acid]",10 to 100
5,"Cc1ncsc1-c1ccc([C@H](C)NC(=O)[C@@H]2C[C@@H](O)CN2C(=O)[C@@H](NC(=O)CCCCCc2cc(Cl)cc(OC[C@@H](NC(=O)[C@@H]3Cc4cccc5c4N3C(=O)[C@@H](NC(=O)c3cc4cc(C(=O)P(=O)(O)O)ccc4[nH]3)CC5)C(N)=O)c2)C(C)(C)C)cc1 [Compound I-204, 2-[[(2S,11S)-2-[[(2S)-4-carbamoyl-1-[3-chloro-5-(5-[[(2S)-1-[(2S,4R)-4-hydroxy-2-[[(1S)-1-[4-(4-methyl-1,3-thiazol-5-yl)phenyl]ethyl]carbamoyl]prrolidin-1-yl]-3,3-dimethyl-1-oxobutan-2-yl]carbamoyl]pentyl)phenoxy]butan-2-yl]carbamoyl]-12-oxo-1-azatricyclo[6.4.1.0^[4,13]]trideca-4(13),5,7-trien-11-yl]carbamoyl]-1H-indole-5-carbonylphosphonic acid]",10 to 100
6,"Cc1ncsc1-c1ccc([C@H](C)NC(=O)[C@@H]2C[C@@H](O)CN2C(=O)[C@@H](NC(=O)CCCCCc2cccc(OC[C@@H](NC(=O)[C@@H]3Cc4cccc5c4N3C(=O)[C@@H](NC(=O)c3cc4cc(C(=O)P(=O)(O)O)ccc4[nH]3)CC5)C(N)=O)c2C)C(C)(C)C)cc1 [Compound I-205, diammonium 2-[[(2S,11S)-2-[[(2S)-4-carbamoyl-1-[3-[5-[[(2S)-1-[(2S,4R)-4-hydroxy-2-[[(1S)-1-[4-[4-methyl-1,3-thiazol-5-yl)phenyl]ethyl]carbamoyl]pyrrolidin-1-yl]-3,3-dimethyl-1-oxobutan-2-yl]carbamoyl]pentyl)-2-methylphenoxy]butan-2-yl]carbamoyl]-12-oxo-1-azatricyclo[6.4.1.0^[4,13]]trideca-4(13),5,7-trien-11-yl]carbamoyl]-1H-indole-5-carbonylphosphonate]",10 to 100
7,"Cc1ncsc1-c1ccc(C2(NC(=O)[C@@H]3C[C@@H](O)CN3C(=O)[C@@H](NC(=O)CCCCCc3cccc(OC[C@H](CCC(N)=O)NC(=O)[C@@H]4Cc5cccc6c5N4C(=O)[C@@H](NC(=O)c4cc5cc(C(=O)P(=O)(O)O)ccc5[nH]4)CC6)c3)C(C)(C)C)CC2)cc1 [Compound I-206, diammonium 2-[[(2S,11S)-2-[[(2S)-4-carbamoyl-1-[3-(5-[[(2S)-1-[(2S,4R)-4-hydroxy-2-([1-[4-[4-methyl-1,3-thiazo1-5-yl)phenyl]cyclopropyl]carbamoyl)pyrrolidin-1-yl]-3,3-dimethyl-1-oxobutan-2-yl]carbamoyl]pentyl)phenoxy]butan-2-yl]carbamoyl]-12-oxo-1-azatricyclo[6.4.1.0^[4,13]]trideca-4(13),5,7-trien-11-yl]carbamoyl]-1H-indole-5-carbonylphosphonate]",10 to 100
8,Cc1ncsc1-c1ccc([C@H](C)NC(=O)[C@@H]2C[C@@H](O)CN2C(=O)[C@@H](NC(=O)CCCCCc2ccc(F)c(OC[C@H](CCC(N)=O)NC(=O)[C@@H]3Cc4cccc5c4N3C(=O)[C@@H](NC(=O)c3cc4cc(C(=O)P(=O)(O)O)ccc4[nH]3)CC5)c2)C(C)(C)C)cc1 [Compound I-207],100 to 1000
9,"Cn1c(=O)n(C2CCC(=O)NC2=O)c2ccc(C3CC(CCCCC(=O)N4CC[C@H]5CC[C@@H](C(=O)N[C@@H](CCC(N)=O)C(=O)NC(c6ccccc6)c6ccccc6)N5C(=O)[C@@H](NC(=O)c5cc6cc(C(=O)P(=O)(O)O)ccc6[nH]5)C4)C3)cc21 (stereo partly drawn) [Compound I-208, 2-[[(5S,8S,10aR)-8-[[(1S)-3-carbamoyl-1-(diphenylmethylcarbamoyl)propyl]carbamoyl]-3-(5-[3-[1-(2,6-dioxopiperidin-3-yl)-3-methyl-2-oxo-1,3-benzodiazol-5-yl]cyclobutyl]pentanoyl)-6-oxo-octahydropyrrolo[1,2-a][1,5]diazocin-5-yl]carbamoyl]-1H-indole-5-carbonylphosphonic acid]",100 to 1000
10,Cc1ncsc1-c1ccc([C@H](C)NC(=O)[C@@H]2C[C@@H](O)CN2C(=O)[C@@H](NC(=O)CCCCCc2cccc(NC(=O)[C@H](CCC(N)=O)NC(=O)[C@@H]3Cc4cccc5c4N3C(=O)[C@@H](NC(=O)c3cc4cc(C(=O)P(=O)(O)O)ccc4[nH]3)CC5)c2)C(C)(C)C)cc1 [Compound I-209],10 to 100
11,"Cc1ncsc1-c1ccc(CNC(=O)[C@@H]2C[C@@H](O)CN2C(=O)[C@@H](NC(=O)CCCCCc2cccc(O[C@H](C)[C@H](CCC(N)=O)NC(=O)[C@@H]3Cc4cccc5c4N3C(=O)[C@@H](NC(=O)c3cc4cc(C(=O)P(=O)(O)O)ccc4[nH]3)CC5)c2)C(C)(C)C)cc1 [Compound I-210, 2-[[(2S,11S)-2-[[(3S,4R)-1-carbamoyl-4-[3-(5-[[(2S)-1-[(2S,4R)-4-hydroxy-2-([[4-(4-methyl-1,3-thiazol-5-yl)phenyl]methyl]carbamoyl)pyrrolidin-1-yl]-3,3-dimethyl-1-oxobutan-2-yl]carbamoyl]pentyl)phenoxy]pentan-3-yl]carbamoyl]-12-oxo-1-azatricyclo[6.4.1.0^[4,13]]trideca-4(13),5,7-trien-11-yl]carbamoyl]-1H-indole-5-carbonylphosphonic acid]",> 1000
